From patent US6624182B1, “Hydroxyphenylvinylthiazoles” (Ciba Specialty Chemicals Corporation, priority 1999, dated 2003)

Legend:
Assay in all cases: Determination of the minimum inhibitory concentration (MIC value) in microtitre plates
P. aeruginosa = type: cell-based, Pseudomonas aeruginosa CIP A-22; details: optical density at 620 nm, 48 hours at 37° C., MIC = ≦20% growth; tested at 100; 10 and 1 ppm (approximate values); (2), (3), (4) at 120; 60; 30; 15; 7.5; 3.75 ppm
Method in brief: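 P. aeruginosa CIP A-22 at 1−5×10^6 KBE/ml, diluted 1:100 in CASO bouillon, exposed to 1:2 serial dilutions of DMSO-dissolved compound for 48 h at 37 °C, in duplicate. Growth read by OD 620 nm; MIC is the lowest concentration giving ≤20% growth relative to growth control.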

C. albicans = type: cell-based, Candida albicans ATCC 10231; details: optical density at 620 nm, 48 hours at 37° C., MIC = ≦20% growth; tested at 100; 10 and 1 ppm (approximate values); (2), (3), (4) at 120; 60; 30; 15; 7.5; 3.75 ppm
Method in brief: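 Candida albicans ATCC 10231 grown overnight in CASO broth, adjusted to 1–5×10^6 CFU/ml then diluted 1:100, was exposed to 1:2 serial dilutions of compound (DMSO) for 48 h at 37 °C. Growth was read as OD620; MIC was the concentration giving ≤20% growth versus control, tested in duplicate.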

E. coli = type: cell-based, Escherichia coli NCTC 8196; details: optical density at 620 nm, 48 hours at 37° C., MIC = ≦20% growth; tested at 100; 10 and 1 ppm (approximate values); (2), (3), (4) at 120; 60; 30; 15; 7.5; 3.75 ppm
Method in brief: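 E. coli NCTC 8196 grown overnight in CASO bouillon, adjusted to 1−5×10^6 KBE/ml, diluted 1:100 and added to DMSO-dissolved compounds in 1:2 dilution series. Incubated 48 h at 37° C; growth read as OD 620 nm. MIC is the lowest concentration giving ≤20% growth versus growth control; duplicates.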

S. aureus = type: cell-based; details: optical density at 620 nm, 48 hours at 37° C., MIC = ≦20% growth; tested at 100; 10 and 1 ppm (approximate values); (2), (3), (4) at 120; 60; 30; 15; 7.5; 3.75 ppm
Method in brief: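 DMSO-dissolved compounds were tested in 1:2 serial dilutions against bacteria in CASO bouillon, from inocula of 1−5×10^6 KBE/ml diluted 1:100. Growth was read by OD 620 nm after 48 h at 37 °C. MIC was the lowest concentration giving ≦20% growth versus the growth control, tested in duplicate.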

A. niger = type: cell-based, Aspergillus niger ATCC 6275; details: optical density at 620 nm, 5 days at 28° C., MIC = ≦20% growth; tested at 100; 10 and 1 ppm (approximate values); (2), (3), (4) at 120; 60; 30; 15; 7.5; 3.75 ppm
Method in brief: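 A. niger ATCC 6275 spores, adjusted to 1−5×10^6 KBE/ml and diluted 1:100 in Sabouraud 2% glucose bouillon, were exposed to 2-fold dilutions of DMSO-dissolved compounds for 5 days at 28°C. Growth read as OD at 620 nm. MIC is the lowest concentration giving ≤20% growth versus growth control, tested in duplicate.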

Cc1cccc(/C=C/c2nc(-c3ccc(F)cc3)cs2)c1O [Compound of formula (13)]
>100 ppm: MIC values in ppm P. aeruginosa (P. aeruginosa) | MIC values in ppm C. albicans (C. albicans) | MIC values in ppm E. coli (E. coli) | MIC values in ppm S. aureus (S. aureus) | MIC values in ppm A. niger (A. niger)

CCc1csc(/C=C/c2ccc(OCc3ccccc3)cc2O)n1 [Compound of formula (49)]
>100 ppm: MIC values in ppm P. aeruginosa (P. aeruginosa) | MIC values in ppm C. albicans (C. albicans) | MIC values in ppm E. coli (E. coli) | MIC values in ppm S. aureus (S. aureus) | MIC values in ppm A. niger (A. niger)

CCOc1cc(/C=C/c2nc(-c3ccccc3)cs2)ccc1O [Compound of formula (53)]
>100 ppm: MIC values in ppm P. aeruginosa (P. aeruginosa) | MIC values in ppm C. albicans (C. albicans) | MIC values in ppm E. coli (E. coli) | MIC values in ppm S. aureus (S. aureus) | MIC values in ppm A. niger (A. niger)

CCc1csc(/C=C/c2cccc(O)c2)n1 [Compound of formula (40)]
>100 ppm: MIC values in ppm P. aeruginosa (P. aeruginosa) | MIC values in ppm C. albicans (C. albicans) | MIC values in ppm E. coli (E. coli) | MIC values in ppm S. aureus (S. aureus) | MIC values in ppm A. niger (A. niger)

COc1ccc(/C=C/c2nc(-c3ccc(F)cc3)cs2)cc1O [Compound of formula (6)]
>100 ppm: MIC values in ppm P. aeruginosa (P. aeruginosa) | MIC values in ppm C. albicans (C. albicans) | MIC values in ppm E. coli (E. coli) | MIC values in ppm S. aureus (S. aureus) | MIC values in ppm A. niger (A. niger)

Oc1ccccc1/C=C/c1nc(-c2ccccc2)cs1 [Compound of formula (56)]
>100 ppm: MIC values in ppm P. aeruginosa (P. aeruginosa) | MIC values in ppm C. albicans (C. albicans) | MIC values in ppm E. coli (E. coli) | MIC values in ppm S. aureus (S. aureus) | MIC values in ppm A. niger (A. niger)

COc1cc(/C=C/c2nc(-c3ccc(F)cc3)cs2)cc(O)c1OC [Compound of formula (11)]
>100 ppm: MIC values in ppm P. aeruginosa (P. aeruginosa) | MIC values in ppm C. albicans (C. albicans) | MIC values in ppm E. coli (E. coli) | MIC values in ppm S. aureus (S. aureus) | MIC values in ppm A. niger (A. niger)

CCc1csc(/C=C/c2ccc(OC)cc2O)n1 [Compound of formula (44)]
>100 ppm: MIC values in ppm P. aeruginosa (P. aeruginosa) | MIC values in ppm C. albicans (C. albicans) | MIC values in ppm E. coli (E. coli) | MIC values in ppm S. aureus (S. aureus) | MIC values in ppm A. niger (A. niger)

CCc1csc(/C=C/c2ccc(O)c(OC)c2)n1 [Compound of formula (43)]
>100 ppm: MIC values in ppm P. aeruginosa (P. aeruginosa) | MIC values in ppm C. albicans (C. albicans) | MIC values in ppm E. coli (E. coli) | MIC values in ppm S. aureus (S. aureus) | MIC values in ppm A. niger (A. niger)

CCc1csc(/C=C/c2ccc(OC)c(O)c2)n1 [Compound of formula (41)]
>100 ppm: MIC values in ppm P. aeruginosa (P. aeruginosa) | MIC values in ppm C. albicans (C. albicans) | MIC values in ppm E. coli (E. coli) | MIC values in ppm S. aureus (S. aureus) | MIC values in ppm A. niger (A. niger)

CC(C)(C)c1csc(/C=C/c2cccc(O)c2)n1 [Compound of formula (17)]
>100 ppm: MIC values in ppm P. aeruginosa (P. aeruginosa) | MIC values in ppm C. albicans (C. albicans) | MIC values in ppm E. coli (E. coli) | MIC values in ppm S. aureus (S. aureus) | MIC values in ppm A. niger (A. niger)

COc1ccc(/C=C/c2nc(C(C)(C)C)cs2)cc1O [Compound of formula (18)]
>100 ppm: MIC values in ppm P. aeruginosa (P. aeruginosa) | MIC values in ppm C. albicans (C. albicans) | MIC values in ppm E. coli (E. coli) | MIC values in ppm S. aureus (S. aureus) | MIC values in ppm A. niger (A. niger)

Cc1cc(/C=C/c2nc(-c3ccc(N4CCCC4)cc3)cs2)cc(C)c1O [Compound of formula (35)]
>100 ppm: MIC values in ppm P. aeruginosa (P. aeruginosa) | MIC values in ppm C. albicans (C. albicans) | MIC values in ppm E. coli (E. coli) | MIC values in ppm S. aureus (S. aureus) | MIC values in ppm A. niger (A. niger)
